Data as given in ChEMBL document CHEMBL3734715, “Synthesis and antiproliferativeactivity of new vinca alkaloids containing an α,β-unsaturated aromatic side chain” (Bioorg Med Chem Lett, 2015).
Structures can show the parent of a compound that is named as a salt.

Experiments:
Format in all cases: functional, cell-based
KB = test: Cytotoxicity against human KB cells after 72 hrs by SRB assay
MCF7 = test: Cytotoxicity against human MCF7 cells after 72 hrs by SRB assay; details: MCF7, 72 h
HepG2 = test: Cytotoxicity against human HepG2 cells after 72 hrs by SRB assay; details: HepG2, 72 h
Lu1 = test: Cytotoxicity against human Lu1 cells after 72 hrs by SRB assay; details: Lu1, 72 h

SMILES	IC50 (KB) [µM]	IC50 (MCF7) [µM]	IC50 (HepG2) [µM]	IC50 (Lu1) [µM]
CC[C@]1(O)C[C@@H]2C[C@](C(=O)OC)(c3cc4c(cc3OC)N(C)[C@H]3[C@@](O)(C(=O)OC)[C@H](OC(C)=O)[C@]5(CC)C=CCN6CC[C@]43[C@@H]65)c3[nH]c4ccccc4c3CC[N@+](CC(=O)/C=C/c3ccc4ccccc4c3)(C2)C1	0.03	13.7	18.1	15.1
CC[C@]1(O)C[C@@H]2C[C@](C(=O)OC)(c3cc4c(cc3OC)N(C=O)[C@H]3[C@@](O)(C(=O)OC)[C@H](OC(C)=O)[C@]5(CC)C=CCN6CC[C@]43[C@@H]65)c3[nH]c4ccccc4c3CC[N@+](CC(=O)/C=C/c3ccc(O)c(OC)c3)(C2)C1	1.67	3.08	2.44	3.45
CC[C@]1(O)C[C@@H]2C[C@](C(=O)OC)(c3cc4c(cc3OC)N(C)[C@H]3[C@@](O)(C(=O)OC)[C@H](OC(C)=O)[C@]5(CC)C=CCN6CC[C@]43[C@@H]65)c3[nH]c4ccccc4c3CC[N@+](CC(=O)/C=C/c3ccc(Cl)cc3)(C2)C1	0.06	4.89	7.77	4.25
CC[C@]1(O)C[C@@H]2C[C@](C(=O)OC)(c3cc4c(cc3OC)N(C=O)[C@H]3[C@@](O)(C(=O)OC)[C@H](OC(C)=O)[C@]5(CC)C=CCN6CC[C@]43[C@@H]65)c3[nH]c4ccccc4c3CC[N@+](CC(=O)/C=C/c3ccc4ccccc4c3)(C2)C1	0.08	11	7.94	12
CCC1=C[C@@H]2C[C@](C(=O)OC)(c3cc4c(cc3OC)N(C)[C@H]3[C@@](O)(C(=O)OC)[C@H](OC(C)=O)[C@]5(CC)C=CCN6CC[C@]43[C@@H]65)c3[nH]c4ccccc4c3CC[N@@+](CC(=O)/C=C/c3ccc(Cl)cc3)(C1)C2	0.28	1.83	1.75	1.31
CCC1=C[C@H]2CN(CCc3c([nH]c4ccccc34)[C@@](C(=O)OC)(c3c(OC)cc(N)cc3OC)C2)C1	11.5	21	20.4	19.4
CC[C@]1(O)C[C@@H]2C[C@](C(=O)OC)(c3cc4c(cc3OC)N(C=O)[C@H]3[C@@](O)(C(=O)OC)[C@H](OC(C)=O)[C@]5(CC)C=CCN6CC[C@]43[C@@H]65)c3[nH]c4ccccc4c3CC[N@+](CC(=O)/C=C/c3ccc(Cl)cc3)(C2)C1	0.03	10.9	14.2	13.8
CCC1=C[C@@H]2C[C@](C(=O)OC)(c3c(OC)cc(N)cc3OC)c3[nH]c4ccccc4c3CC[N@@+](CC(=O)/C=C/c3ccc4ccccc4c3)(C1)C2	4.16	11.9	10.9	8.34
CCC1=C[C@@H]2C[C@](C(=O)OC)(c3c(OC)cc(N)cc3OC)c3[nH]c4ccccc4c3CC[N@@+](CC(=O)/C=C/c3ccc(O)c(OC)c3)(C1)C2	9.11	94.5	86.8	79
CCC1=C[C@@H]2C[C@](C(=O)OC)(c3c(OC)cc(N)cc3OC)c3[nH]c4ccccc4c3CC[N@@+](CC(=O)/C=C/c3ccc(Cl)cc3)(C1)C2	6.12	17.9	20.2	13.8
CCC1=C[C@@H]2C[C@](C(=O)OC)(c3cc4c(cc3OC)N(C)[C@H]3[C@@](O)(C(=O)OC)[C@H](OC(C)=O)[C@]5(CC)C=CCN6CC[C@]43[C@@H]65)c3[nH]c4ccccc4c3CC[N@@+](CC(=O)/C=C/c3ccc(O)c(OC)c3)(C1)C2	0.64	50.5	51.5	57.5
CCC1=C[C@@H]2C[C@](C(=O)OC)(c3cc4c(cc3OC)N(C)[C@H]3[C@@](O)(C(=O)OC)[C@H](OC(C)=O)[C@]5(CC)C=CCN6CC[C@]43[C@@H]65)c3[nH]c4ccccc4c3CC[N@@+](CC(=O)/C=C/c3ccc4ccccc4c3)(C1)C2	0.64	4.82	4.31	3.71
CC[C@]1(O)C[C@@H]2C[C@](C(=O)OC)(c3cc4c(cc3OC)N(C)[C@H]3[C@@](O)(C(=O)OC)[C@H](OC(C)=O)[C@]5(CC)C=CCN6CC[C@]43[C@@H]65)c3[nH]c4ccccc4c3CC[N@+](CC(=O)/C=C/c3ccc(O)c(OC)c3)(C2)C1	1.69	12.5	7.23	4.8
CC[C@]1(O)C[C@H]2CN(CCc3c([nH]c4ccccc34)[C@@](C(=O)OC)(c3cc4c(cc3OC)N(C)[C@H]3[C@@](O)(C(=O)OC)[C@H](OC(C)=O)[C@]5(CC)C=CCN6CC[C@]43[C@@H]65)C2)C1	0.02	0.23	0.34	0.47
CCC1=C[C@H]2CN(CCc3c([nH]c4ccccc34)[C@@](C(=O)OC)(c3cc4c(cc3OC)N(C)[C@H]3[C@@](O)(C(=O)OC)[C@H](OC(C)=O)[C@]5(CC)C=CCN6CC[C@]43[C@@H]65)C2)C1	2.06	4.63	4.53	5.98
Cc1c2ccncc2c(C)c2c1[nH]c1ccccc12 [ELLIPTECINE]	1.66	1.54	2.07	2.31
CC[C@]1(O)C[C@H]2CN(CCc3c([nH]c4ccccc34)[C@@](C(=O)OC)(c3cc4c(cc3OC)N(C=O)[C@H]3[C@@](O)(C(=O)OC)[C@H](OC(C)=O)[C@]5(CC)C=CCN6CC[C@]43[C@@H]65)C2)C1 [VINCRISTINE SULFATE]	0.02	0.51	0.69	0.48
